This passage reports IC50 results from BindingDB's records for patent US10669227 (THE RESEARCH FOUNDATION OF STATE UNIVERSITY OF NEW YORK, 2020).

For this test, the target named is 72 kDa type IV collagenase (Homo sapiens, UniProt P08253). Briefly: Inhibition of MMPs. An excerpt:
However, it should be noted that excessive inhibition of MMP activity may not be desirable therapeutically because a minimal, or basal, level of MMPs may be necessary for optimal defense of the host.

Chain of 72 kDa type IV collagenase (P08253 whole entry): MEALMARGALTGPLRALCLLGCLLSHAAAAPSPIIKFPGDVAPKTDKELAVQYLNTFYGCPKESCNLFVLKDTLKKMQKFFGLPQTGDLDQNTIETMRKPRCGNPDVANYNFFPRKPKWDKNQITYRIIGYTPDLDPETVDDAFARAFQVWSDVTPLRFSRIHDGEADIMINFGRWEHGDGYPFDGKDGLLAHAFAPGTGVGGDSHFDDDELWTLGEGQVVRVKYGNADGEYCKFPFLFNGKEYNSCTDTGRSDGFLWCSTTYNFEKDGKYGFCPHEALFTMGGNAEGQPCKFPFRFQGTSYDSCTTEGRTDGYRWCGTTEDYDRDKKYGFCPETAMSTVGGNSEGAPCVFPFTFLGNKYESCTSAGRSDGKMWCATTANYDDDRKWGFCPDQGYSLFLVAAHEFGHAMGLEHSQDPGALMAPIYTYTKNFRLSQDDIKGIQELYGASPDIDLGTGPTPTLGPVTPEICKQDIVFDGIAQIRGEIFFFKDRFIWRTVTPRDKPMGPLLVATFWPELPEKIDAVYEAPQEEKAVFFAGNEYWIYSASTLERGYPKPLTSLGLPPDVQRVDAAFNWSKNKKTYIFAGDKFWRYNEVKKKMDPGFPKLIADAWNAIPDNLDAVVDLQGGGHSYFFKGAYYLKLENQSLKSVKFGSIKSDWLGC

Take `COc1cc(/C=C/C(=O)C(C(=O)/C=C/c2ccc(O)c(CO)c2)C(=O)Nc2ccccc2)ccc1O` (stereo unspecified) [US10669227, Compound 6]: the IC50 was 85 µM.
